Assay results: patent US10166211B1, “Nitric oxide releasing compound, pharmaceutical composition, use and synthesis method thereof” (NATIONAL CHIAO TUNG UNIVERSITY, priority 2017, dated 2019)

Assays:
EAHY926 cells [1] = assay: Wound healing assay (in vitro scratch); assay type: cell-based, human; settings: EAHY926, 7.8 μM, 1 mm wide line, 24th hour, FIGS. 9A-9I
Description: (§1) In the present disclosure, the cell line for the cell experiment is EAHY926 (human vascular endothelial cell line), and the mouse strain for the animal experiment is BALB/c Nude mouse.
EAHY926 cells were seeded in cell culture plates at 37° C. […] A 1 millimeter (mm) wide line was scraped off in a culture plate, and images of the culture were taken within the first hour and the 24th hour to record and quantify the percentage of wound healing.

EAHY926 cells [2] = assay: Cell viability (MTT) of the cell cultures of the wound healing test; assay type: cell-based, human; settings: EAHY926, 7.8 μM, FIG. 11
Source text: (§2) In this experiment, 3-(4,5-cimethylthiazol-2-yl)-2,5-diphenyl tetrazolium bromide (also called MTT) was used for testing cell viability. MTT is a yellow compound and a dye that accepts hydrogen ions and acts on the respiratory chain of living cell mitochondria. Under the action of succinate dehydrogenase (SDH) and cytochrome C, the tetrazolium ring of MTT will be cracked to generate blue color crystals. The formation of crystals is proportional to the number of living cells (in dead cells, because there is no active succinate dehydrogenase, MTT cannot be reduced). The O.D value can indirectly represent cell viability because of the MTT reduction ability of living cells.
In the present experimental example, then the cell viability was assayed by adding MTT reagent to the various cell cultures of wound healing test. The results are shown in FIG. 11, among all of the groups, the group treated with RRE-1 had the highest cell viability. The result corresponds to the result of FIG. 4. In FIG. 11, the effects of cell viability were ranked as RRE-1>DPTA>MAHMA. The trend is similar to the result of FIG. 10.

TIE-2 = assay: Western blot assay, TIE-2 expression; assay type: cell-based, human; settings: EAHY926, 7.8 μM, 24 hours, FIG. 12
Description: (§3) In the literature, nitric oxide releasing agents have the potential for promoting angiogenesis and wound healing in vivo, and are also clinically useful agents that can effectively promote the expression of vascular endothelial growth factor receptor 2 (VEGFR2). Therefore, this experiment intended to test the effect of the respective various nitric oxide releasing agents on the expression of angiogenesis-related proteins (e.g., TIE-2, and VEGFR-2).
(§4) EAHY926 cells were seeded in cell culture dishes at 37° C. […] After 24 hours incubation, the cultures were washed with PBS three times and added 250 microliters (μL) of cell lysis buffer, then the cells were scraped and the proteins of the cells were extracted for Western blot experiment.

EAHY926 cells [3] = assay: Cell development index assay (Angiogenesis Analyzer for ImageJ); assay type: cell-based, human; settings: EAHY926, 7.8 μM, 24th hour; for numbers of endothelial junctions (rank of effects): FIG. 7A; for numbers of endothelial meshes (rank of effects): FIG. 7B; for total branching lengths (rank of effects): FIG. 7C
Description: as §1
EAHY926 cells were seeded in cell culture plates at 37° C. […] Microscopic images were taken within the first hour and the 24th hour after the addition of nitric oxide releasing agents, and the images were analyzed by “Angiogenesis Analyzer for ImageJ” software for analyzing cell development index. The analyzed cell development parameters include cell meshes, cell junctions and cell branches.
Please refer to FIGS. 5A to 5H and FIGS. 6A to 6H. In the analysis of cell development, the gray lines were represented as cell branches of the cell-cell junction, and the more lines mean more growth of the cells. In addition, when the cells were more developed because they had more cell branches, the cells were represented by white lines. As the degree of cell development increased, cell junctions (dark gray dots) became more. Further, the cells enclosed multiple circles (black lines) which were called cell meshes.

VEGFR-2 = assay: Western blot assay, VEGFR-2 expression; assay type: cell-based, human; settings: EAHY926, 7.8 μM, 24 hours, FIG. 12
Description: as §3, §4

[4] = system: zebrafish with fluorescence gene Tg (fli1: EGFP) y1; assay: In vivo angiogenesis assay in zebrafish; settings: 7.8 μM
Description: In this experiment, zebrafish with fluorescence gene Tg (fli1: EGFP) y1 were used for in vivo angiogenesis analysis. The zebrafish nutrient solutions were respectively added with the respective various nitric oxide releasing agents at 7.8 μM concentration. The zebrafish were incubated with nitric oxide releasing agents for 24 to 48 hours. The confocal microscopy images were taken at the beginning, the 24th hour, and the 48th hour after incubation, and semi-quantitative analysis of neovascularization in zebrafish oocysts was performed.
FIGS. 14A to 14E show images taken within the first hour after addition of the nitric oxide releasing agents. FIGS. 15A to 15E are images taken within the 24th hour after addition of the nitric oxide releasing agents. FIGS. 16A to 16E are images taken within the 48th hour after addition of nitric oxide releasing agents. Neovascularization in the zebrafish oocyst area is indicated by the white arrows.

[5] = system: Immunodeficient nude mice; assay: In vivo angiogenesis assay (DIVAA) in mice; set-up: species or system mouse; settings: soft tubes implanted in the back, 7.8 μM, twenty days, FIG. 13
Source text: as §1
Immunodeficient nude mice (6 in each group) were fixed on the operating table and anesthetized (1-3% isoflurane/100% oxygen, flow rate 1 L/min). After the mice were fixed, two 1 cm incisions were respectfully cut on the left and right back of the mice with a surgical knife. Soft tubes containing mixtures of cell nutrient agents and 7.8 μM of respective nitric oxide releasing agents were prepared. These soft tubes were implanted into the back of the mice, then the wounds were washed with normal saline and were stitched. After 20 days, the soft tubes were removed and the hemoglobins within the soft tubes were released. The total amounts of hemoglobin were analyzed by ELISA analyzer for obtaining the correlation parameters of angiogenesis.
The control group was the conditioned of the soft tube without nitric oxide releasing agents.

chicken embryos = assay: Chicken chorioallantoic membrane assay (CAM); assay type: in vivo; settings: 7.8 μM injected into eggs after 6 days incubation, 2 days of culture, FIG. 20
Description: In this experimental example, the insemination eggs were placed on the egg rack and the eggs' gas chamber were placed upwards in the hatching incubator. After incubation for 6 days, the eggs were screened with an egg detector, and the insemination eggs with hatching embryos were selected. Then, small holes were respectively drilled on the air chamber end (blunt end) and a side of the selected eggs, and 7.8 μM of the respective various nitric oxide releasing agents were injected through the small holes at the blunt end, sterilized filter films were covered on the hole of the air chamber, and then ventilation tapes were put on. The eggs were continuously incubated in the incubator. After 2 days of culture, the eggs were poked and placed in Petri dishes to observe and recorded by a camera.
The condition of the control group was the eggs with no addition of nitric oxide releasing agents.

EAHY926 cells [6] = assay: Cell viability assay (MTT); assay type: cell-based, human; settings: EAHY926, 24 hours, 37° C., at various concentrations, FIG. 4
Source text: as §1, §2

Molecule	effect on wound healing (images) (EAHY926 cells [1])	cell viability (MTT) after wound healing test (EAHY926 cells [2])	expression of protein TIE-2 (Western blot) (TIE-2)	numbers of endothelial junctions (rank of effects) (EAHY926 cells [3])	numbers of endothelial meshes (rank of effects) (EAHY926 cells [3])	total branching lengths (rank of effects) (EAHY926 cells [3])	expression of protein VEGFR-2 (Western blot) (VEGFR-2)	angiogenesis (neovascularization in zebrafish oocyst area) ([4]; 24 hours, FIG. 17)	angiogenesis inside the soft tubes (total amounts of hemoglobin) [5]	angiogenesis of chicken embryos (CAM) (chicken embryos)	promotion of cell growth (cell viability, MTT) (EAHY926 cells [6])	angiogenesis (neovascularization in zebrafish), overall statement ([4]; 24 to 48 hours)
1-(hydroxy-NNO-azoxy)-L-proline, disodium salt	more significant effects on wound healing											
NCCCN(CCCN)/[N+]([O-])=N/O [DPTA, (Z)-1-[N-(3-aminopropyl)-N-(3-ammoniopropyl)amino]diazen-1-ium-1,2-diolate]	more significant effects on wound healing	RRE-1>DPTA>MAHMA										
CNCCCCCCN(C)/[N+]([O-])=N/O [MAHMA, (Z)-1-[N-Methyl-N-[6-(N-methylammoniohexyl)amino]]diazen-1-ium-1,2-diolate]		RRE-1>DPTA>MAHMA	only induced a small amount	RRE-1>VEGF>Spermine>MAHA	RRE-1>VEGF>MAHMA>Spermine	RRE-1>Spermine>VEGF>MAHMA	only induced a small amount	most effective				
NCCCNCCCCNCCCN [Spermine]	more significant effects on wound healing		only induced a small amount	RRE-1>VEGF>Spermine>MAHA	RRE-1>VEGF>MAHMA>Spermine	RRE-1>Spermine>VEGF>MAHMA	only induced a small amount		followed by VEGF and Spermine	similar		
VEGF	more significant effects on wound healing		only induced a small amount	RRE-1>VEGF>Spermine>MAHA	RRE-1>VEGF>MAHMA>Spermine	RRE-1>Spermine>VEGF>MAHMA	only induced a small amount		followed by VEGF and Spermine		does not work better than other commercially available nitric oxide-releasing agents	not effective as expected
